Reference: patent publication US4670542A, “New antibiotics, preparation and use of and intermediates therefor” (Bayer Aktiengesellschaft, priority 1983, dated 1987)
Starred links: 1 amine or outer side, 2 acyl side, 3 side chain; linkers in the order of their positions; H or OH if unused. Non-standard residues stand in square brackets, D forms with d. Residues, ends and D or L forms follow the SMILES beside them. ξ: configuration not given here. X1 = Cn1c(=NC(N)=O)ccn(C2SC(C(O)C(N[*:1])C(=O)[*:2])C(O)C2O)c1=O; Orn(N5-OH,N5-Ac) = CC(=O)N(O)CCC[C@H](N)C(=O)O; ξT = CC(O)C(N)C(=O)O; ξA = CC(N)C(=O)O

Assays:
Assay in all cases: Hole test, inhibiting areola diameter, medium DST agar
Format in all cases: cell-based
E. coli 14 = test system: E. coli 14
Description: (§1) Activity against the germs listed below is found in vitro, on the basis of the diameter of the inhibiting areola.

E. coli T 7 = test system: E. coli T 7; parameters: unit not given here
Description: as §1

Klebs. 57 USA = conditions: 100 ug/ml
Description: as §1

Prot. 1017 = conditions: 1000 ug/ml
Description: as §1

Staph. 133 = conditions: 1000 ug/ml
Description: as §1

| SMILES | Inhibiting areola diameter E. coli 14 (E. coli 14; 10 ug/ml) | Inhibiting areola diameter E. coli 14 (E. coli 14; 100 ug/ml) | Inhibiting areola diameter E. coli T 7 (E. coli T 7; 10 ug/ml) | Inhibiting areola diameter E. coli T 7 (E. coli T 7; 100 ug/ml) | Inhibiting areola diameter Klebs. 57 USA (Klebs. 57 USA) | Inhibiting areola diameter E. coli 14 (E. coli 14; 1000 ug/ml) | Inhibiting areola diameter Prot. 1017 (Prot. 1017) | Inhibiting areola diameter E. coli T 7 (E. coli T 7; 1000 ug/ml) | Inhibiting areola diameter Staph. 133 (Staph. 133) |
| --- | --- | --- | --- | --- | --- | --- | --- | --- | --- |
| CC(=O)N(O)CCC[C@H](NC(=O)[C@H](CCCN(O)C(C)=O)NC(=O)[C@@H](N)CCCN(O)C(C)=O)C(=O)NC(C)C(=O)NC(C(=O)O)C(O)C1SC(n2ccc(=NC(N)=O)n(C)c2=O)C(O)C1O (some centres unmarked) [Compound 9, Peptidyl-nucleoside] (H-[Orn(N5-OH,N5-Ac)][Orn(N5-OH,N5-Ac)][Orn(N5-OH,N5-Ac)][ξA][X1]-OH) | 30 | 34 | 28 | 34 | – | – | – | – | – |
| CC(=O)N(O)CCC[C@H](N)C(=O)NC(C(=O)O)C(O)C1SC(n2ccc(=NC(N)=O)n(C)c2=O)C(O)C1O (some centres unmarked) [Compound 11] | – | 13 | 13 | 18 | 18 | – | – | – | – |
| CC(=O)N(O)CCC[C@H](NC(=O)[C@H](CCCN(O)C(C)=O)NC(=O)[C@@H](N)CCCN(O)C(C)=O)C(=O)NC(C(=O)O)C(O)C1SC(n2ccc(=NC(N)=O)n(C)c2=O)C(O)C1O (some centres unmarked) [Compound 13] | – | – | – | – | – | 20 | 20 | 19 | – |
| CC(=O)N(O)CCC[C@H](NC(=O)[C@H](CCCN(O)C(C)=O)NC(=O)[C@@H](N)CCCN(O)C(C)=O)C(=O)NC(C(=O)O)C(O)C1SC(n2ccc(=O)n(C)c2=O)C(O)C1O (some centres unmarked) [Compound 24] | – | – | – | 18 | – | 18 | 18 | – | – |
| CC(=O)N(O)CCC[C@H](NC(=O)[C@H](CCCN(O)C(C)=O)NC(=O)[C@@H](N)CCCN(O)C(C)=O)C(=O)NC(C(=O)NC(C(=O)O)C(O)C1SC(n2ccc(=NC(N)=O)n(C)c2=O)C(O)C1O)C(C)O (some centres unmarked) [Compound 20] (H-[Orn(N5-OH,N5-Ac)][Orn(N5-OH,N5-Ac)][Orn(N5-OH,N5-Ac)][ξT][X1]-OH) | – | 13 | – | 14 | – | 14 | 17 | 15 | 25 |
